What was measured:
Format in all cases: in vivo
zea mays [1] = experiment: Pre-emergence herbicidal activity, glasshouse pot test; conditions: pre-emergence spray, rate 1000 g/ha, evaluated after 13 days, scale 0-5
Description: (§1) Seeds of a variety of test species were sown in standard soil in pots. After cultivation for one day (pre-emergence) under controlled conditions in a glasshouse (at 24/16° C., day/night; 14 hours light; 65% humidity), the plants were sprayed with an aqueous spray solution derived from the formulation of the technical active ingredient in acetone/water (50:50) solution containing 0.5% Tween 20 (polyoxyethelyene sorbitan monolaurate, CAS RN 9005-64-5). The test plants were then grown in a glasshouse under controlled conditions (at 24/16° C., day/night; 14 hours light; 65% humidity) and watered twice daily. After 13 days, the test was evaluated (5=total damage to plant; 0=no damage to plant).
(§2) ABUTH=Abutilon theophrasti; SOLNI=Solanum nigrum; AMARE=Amaranthus retroflexus; SETFA=Setaria faberi; ALOMY=Alopecurus myosuroides; ECHCG=Echinochloa crus-galli, ZEAMX=zea mays.

Echinochloa crus-galli [2] = experiment: as above; conditions: pre-emergence spray, rate 1000 g/ha, evaluated after 13 days, scale 0-5
Description: as §1, §2

Setaria faberi [3] = experiment: as above; conditions: pre-emergence spray, rate 1000 g/ha, evaluated after 13 days, scale 0-5
Description: as §1, §2

Abutilon theophrasti [4] = experiment: as above; conditions: pre-emergence spray, rate 1000 g/ha, evaluated after 13 days, scale 0-5
Description: as §1, §2

Amaranthus retroflexus [5] = experiment: as above; conditions: pre-emergence spray, rate 1000 g/ha, evaluated after 13 days, scale 0-5
Description: as §1, §2

Alopecurus myosuroides [6] = experiment: as above; conditions: pre-emergence spray, rate 1000 g/ha, evaluated after 13 days, scale 0-5
Description: as §1, §2

zea mays [7] = experiment: Post-emergence herbicidal activity, glasshouse pot test; design: key: 0 = no damage to plant, 5 = total damage to plant; conditions: Application post-emergence, rate 1000 g/ha, evaluated after 13 days
Description: (§3) Seeds of a variety of test species were sown in standard soil in pots. After 8 days cultivation (post-emergence) under controlled conditions in a glasshouse (at 24/16° C., day/night; 14 hours light; 65% humidity), the plants were sprayed with an aqueous spray solution derived from the formulation of the technical active ingredient in acetone/water (50:50) solution containing 0.5% Tween 20 (polyoxyethelyene sorbitan monolaurate, CAS RN 9005-64-5). The test plants were then grown in a glasshouse under controlled conditions (at 24/16° C., day/night; 14 hours light; 65% humidity) and watered twice daily. After 13 days, the test was evaluated (5=total damage to plant; 0=no damage to plant).
as §2

Echinochloa crus-galli [8] = experiment: as above; design: key: 0 = no damage to plant, 5 = total damage to plant; conditions: Application post-emergence, rate 1000 g/ha, evaluated after 13 days
Description: as §3, §2

Setaria faberi [9] = experiment: as above; design: key: 0 = no damage to plant, 5 = total damage to plant; conditions: Application post-emergence, rate 1000 g/ha, evaluated after 13 days
Description: as §3, §2

Abutilon theophrasti [10] = experiment: as above; design: key: 0 = no damage to plant, 5 = total damage to plant; conditions: Application post-emergence, rate 1000 g/ha, evaluated after 13 days
Description: as §3, §2

Amaranthus retroflexus [11] = experiment: as above; design: key: 0 = no damage to plant, 5 = total damage to plant; conditions: Application post-emergence, rate 1000 g/ha, evaluated after 13 days
Description: as §3, §2

Alopecurus myosuroides [12] = experiment: as above; design: key: 0 = no damage to plant, 5 = total damage to plant; conditions: Application post-emergence, rate 1000 g/ha, evaluated after 13 days
Description: as §3, §2

SMILES	ZEAMX damage score, application pre-emergence (zea mays [1])	ECHCG damage score, application pre-emergence (Echinochloa crus-galli [2])	SETFA damage score, application pre-emergence (Setaria faberi [3])	ABUTH damage score, application pre-emergence (Abutilon theophrasti [4])	AMARE damage score, application pre-emergence (Amaranthus retroflexus [5])	ALOMY damage score, application pre-emergence (Alopecurus myosuroides [6])	ZEAMX herbicidal damage score (zea mays [7])	ECHCG herbicidal damage score (Echinochloa crus-galli [8])	SETFA herbicidal damage score (Setaria faberi [9])	ABUTH herbicidal damage score (Abutilon theophrasti [10])	AMARE herbicidal damage score (Amaranthus retroflexus [11])	ALOMY herbicidal damage score (Alopecurus myosuroides [12])
CC1=C(Cl)C(=O)N(c2cc(F)ccn2)C1O (stereo not drawn) [AF39]	1	4	3	4	4	3	2	5	4	5	5	4
CC1=C(Cl)C(=O)N(c2cc(C(C)F)ccn2)C1O (stereo not drawn) [AF40]	2	4	5	5	5	2	5	5	4	5	5	3
CC1=C(Cl)C(=O)N(c2cc(C)ccn2)C1O (stereo not drawn) [AF41]	3	4	4	5	5	4	4	5	5	5	5	5
COC(=O)c1cnc(N2C(=O)C(Cl)=C(C)C2O)cc1C(F)(F)F (stereo not drawn) [AF42]	0	0	0	0	0	0	1	4	5	4	4	3
CC1=C(Cl)C(=O)N(c2cc(C(F)(F)F)c(C(F)(F)F)cn2)C1O (stereo not drawn) [AF43]	0	0	0	0	0	0	0	5	5	1	1	2
COc1ccnc(N2C(=O)C(Cl)=C(C)C2O)c1 (stereo not drawn) [AF44]	0	0	0	0	0	0	2	4	1	3	1	3
CC1=C(Cl)C(=O)N(c2cc(C)c([N+](=O)[O-])cn2)C1O (stereo not drawn) [AF48]	0	1	0	0	0	1	0	3	3	0	5	2
CC1=C(Cl)C(=O)N(c2cc(C#N)ccn2)C1O (stereo not drawn) [AF50]	0	0	1	0	0	2	2	5	5	5	1	5
CC1=C(Cl)C(=O)N(c2cc([S+](C)[O-])ccn2)C1O (stereo not drawn) [AF51]	0	0	0	0	0	0	0	3	3	4	0	3
CC1=C(Cl)C(=O)N(c2ccc([S+](C)[O-])cn2)C1O (stereo not drawn) [AF53]	1	1	0	0	1	2	0	3	3	3	1	3
CC1=C(Cl)C(=O)N(c2ccc(S(C)(=O)=O)cn2)C1O (stereo not drawn) [AF54]	2	1	0	0	0	0	0	3	1	2	0	2
COc1ccc(N2C(=O)C(Cl)=C(C)C2O)nc1 (stereo not drawn) [AF56]	0	0	0	2	1	0	2	4	4	5	3	4
CC1=C(Cl)C(=O)N(c2cc(C(F)(F)F)c(Cl)cn2)C1O (stereo not drawn) [AF58]	0	4	3	2	5	3	3	5	5	5	5	4
COc1ccc(-c2ccc(N3C(=O)C(Cl)=C(C)C3O)nc2)cc1 (stereo not drawn) [AF59]	0	1	0	2	3	0	0	1	2	4	3	1
CC1=C(Cl)C(=O)N(c2ccc(C#N)cn2)C1O (stereo not drawn) [AF60]	0	0	0	0	0	0	0	1	1	0	0	1
